We go through 15 molecules from patent publication US12421211B2, “Heterocyclic compounds” (Hoffmann-La Roche Inc., priority 2021, dated 2025).

Structures are written as SMILES. In brackets after ≈: the same amount, converted by molar mass. Structures can show the parent of a compound that is named as a salt. Where two headings read alike, the source gives them in different places. A value given as a limit tells only on which side of the number the result lay.

In test [1] the test system is Acinetobacter baumannii ATCC17961. The experiment in a line: Antimicrobial susceptibility testing: 90% growth inhibitory concentration (IC90) determination. The class given is cell-based. The following applies: Acinetobacter baumannii, ATCC17961, 16 h, read-out: ATCC 17961 IC90. The procedure, abridged:
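A. baumannii ATCC17961 at ~5×10^5 CFU/ml in Iso-Sensitest broth exposed to 10-point twofold dilutions (e.g. 50–0.097 μM final), 35±2° C. OD600 read every 20 minutes over 16h; IC50 and IC90 derived from inhibition during logarithmic growth.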

The test system of test [2] is Acinetobacter baumannii ATCC17978. The experiment in a line: Minimal Inhibitory Concentration (MIC) assay. The class given is cell-based. The following applies: read-out: MIC AB. ATCC17978. How it is done:
Minimal Inhibitory Concentration Protocol (MIC) Assay:
Table 2 provides the in vitro potency of the compounds of present invention obtained against the strain Acinetobacter baumannii ATCC17978, which was assessed by an MIC (Minimal Inhibitory Concentration) assay as follows.
Test compounds were prepared from 10 mM DMSO stock solutions. The top dose was diluted from 10 mM to 2.5 mM by DMSO, followed by serial 2-fold 11 points dilutions in DMSO in a master plate (Greiner, Cat No: 651201). 2 μL compounds were transferred from the master plate into a new 96-well assay plate (Costar, 3599).
The growth medium […] Mueller Hinton Broth (CAMHIB) was prepared by adding 22 g powder (BD, 212322) in 1 L purified water, autoclaved, and supplemented with sterilized CaCl2 (20 mg per liter) and MgCl2 (10 mg per liter).
Vials of each of the test microorganisms were maintained frozen in the vapor phase of a liquid nitrogen freezer. Took out the bacterial strain ATCC 17978 from liquid nitrogen freezer, thawed it at room temperature, and diluted the bacterial in the CAMHB medium to achieve a final inoculum of 2×10^5 CFU/mL. 98 μL of the adjusted bacteria suspension was dispensed to the assay plate and pipetted 5 times.
Then the assay plates were incubated for 20 hours at 35±2° C. in ambient air with humidity. Following incubation, MIC […] value, the lowest concentration of drug that inhibits visible growth of the microorganism, was recorded by visual judgment of bacterial growth through magnification mirror of MIC reader, and the assay plates were photographed with Qcount system as image raw data. Meanwhile, the D600 of assay plates was recorded with SpectraMax Plus384 as GD raw data.

Where [3] appears, read: 90% growth inhibitory concentration, Acinetobacter baumannii ATCC17961, Iso-Sensitest broth, OD 600 nm over 16 h.
[4] abbreviates: Acinetobacter baumannii ATCC17978, CAMHB medium, 20 hours at 35±2° C., visual reading.

As a reminder, the IC90 is the point of the concentration-response curve where the effect stands at 90%. For orientation: MIC means the smallest concentration in the dilution series that meets the test's criterion for growth inhibition. Consider `COCCn1nc(C)c(-c2ccc(-c3cnc(C(=O)Nc4ccc(C(=O)N5CCN(C(=O)C[N+]6(C)C[C@@H](O)[C@H](O)C6)CC5)c(Cl)c4)n3C)c(F)c2F)c1C` (racemic) [Example C12, N-[3-chloro-4-[4-[2-[(3R,4R)-3,4-dihydroxy-1-methyl-pyrrolidin-1-ium-1-yl]acetyl]piperazine-1-carbonyl]phenyl]-5-[2,3-difluoro-4-[1-(2-methoxyethyl)-3,5-dimethyl-pyrazol-4-yl]phenyl]-1-methyl-imidazole-2-carboxamide; formate], for which, in test [1] (setting [3]), the IC90 came out at 153 nM. For the same molecule, in test [2] (setting [4]), the MIC was determined as 1.2 µM.

Consider `CO[C@H]1CCCC[C@@H]1NC(=O)Cn1cc(-c2ccc(-c3cnc(C(=O)Nc4ccc(C(=O)N5CCN(C(=O)C6CC[N+](C)(C)CC6)CC5)c(Cl)c4)n3C)c(F)c2F)c(C)n1` (racemic) [Example G32, N-[3-chloro-4-[4-(1,1-dimethylpiperidin-1-ium-4-carbonyl)piperazine-1-carbonyl]phenyl]-5-[2,3-difluoro-4-[1-[2-[[(1S,2S)-2-methoxycyelohexyl]amino]-2-oxo-ethyl]-3-methyl-pyrazol-4-yl]phenyl]-1-methyl-imidazole-2-carboxamide; formate], for which the IC90 in test [1] (setting [3]) was determined as 185 nM. Moreover, the MIC in test [2] (setting [4]) amounted to 0.66 µM.

For `COCCn1nc(C)c(-c2ccc(-c3cnc(C(=O)Nc4ccc(C(=O)N5CCN(C(=O)C6CC[N+](C)(C)CC6O)CC5)c(Cl)c4)n3C)c(F)c2F)c1C` (stereo not shown) [Example D4, N-[3-chloro-4-[4-(3-hydroxy-1,1-dimethyl-piperidin-1-ium-4-carbonyl)piperazine-1-carbonyl]phenyl]-5-[2,3-difluoro-4-[1-(2-methoxyethyl)-3,5-dimethyl-pyrazol-4-yl]phenyl]-1-methyl-imidazole-2-carboxamide; formate], the IC90 in test [1] (setting [3]) turned out to be 178 nM. Moreover, the minimal inhibitory concentration (MIC) in test [2] (setting [4]) is 1.56 µM.

As to `COCCn1cc(-c2ccc(-c3cnc(C(=O)Nc4ccc(C(=O)N5CCN(C(=O)C[N+]6(C)CCC(O)(CO)CC6)CC5)c(Cl)c4)n3C)c(F)c2F)c(C)n1` (stereo not shown) [Example D18, N-[3-chloro-4-[4-[2-[4-hydroxy-4-(hydroxymethyl)-1-methyl-piperidin-1-ium-1-yl]acetyl]piperazine-1-carbonyl]phenyl]-5-[2,3-difluoro-4-[1-(2-methoxyethyl)-3-methyl-pyrazol-4-yl]phenyl]-1-methyl-imidazole-2-carboxamide; formate], the IC90 in test [1] (setting [3]) came out at 58 nM. Also, the minimal inhibitory concentration (MIC) in test [2] (setting [4]) was determined as 1.23 µM.

With `COCCn1cc(-c2ccc(-c3cnc(C(=O)Nc4ccc(C(=O)N5CCN(C(=O)C6CCNCC6O)CC5)c(C)c4)n3C)c(F)c2F)c(C)n1` (stereo not shown) [Example D22, 5-[2,3-difluoro-4-[1-(2-methoxyethyl)-3-methyl-pyrazol-4-yl]phenyl]-N-[4-[4-(3-hydroxypiperidine-4-carbonyl)piperazine-1-carbonyl]-3-methyl-phenyl]-1-methyl-imidazole-2-carboxamide; formic acid], the IC90 in test [1] was 199 nM. In addition, in test [2] (Acinetobacter baumannii, ATCC17978, 20 h), the MIC came out at 1.1 µM (≈ 0.775 µg/mL).

As to `COCCn1ncc(-c2ccc(-c3cnc(C(=O)Nc4ccc(C(=O)N5CCN(C(=O)C6CCCN6)CC5)c(Cl)c4)n3C)c(F)c2F)c1C` (stereo not shown) [Example D29, N-[3-chloro-4-[4-(pyrrolidine-2-carbonyl)piperazine-1-carbonyl]phenyl]-5-[2,3-difluoro-4-[1-(2-methoxyethyl)-5-methyl-pyrazol-4-yl]phenyl]-1-methyl-imidazole-2-carboxamide; 2,2,2-trifluoroacetic acid], in test [1] (setting [3]), the IC90 was less than 20 nM. Moreover, the MIC in test [2] (setting [4]) is 0.45 µM (≈ 0.313 µg/mL).

With `Cn1c(-c2ccc(-c3cn(C[C@H](O)CO)nc3C(F)(F)F)c(F)c2F)cnc1C(=O)Nc1ccc(C(=O)N2CCN(C(=O)C3CC[N+](C)(C)CC3)CC2)c(Cl)c1` [Example F8, N-[3-chloro-4-[4-(1,1-dimethylpiperidin-1-ium-4-carbonyl)piperazine-1-carbonyl]phenyl]-5-[4-[1-[(2S)-2,3-dihydroxypropyl]-3-(trifluoro-methyl)pyrazol-4-yl]-2,3-difluoro-phenyl]-1-methyl-imidazole-2-carboxamide; formate], in test [2] (setting [4]), the MIC stood at 1.41 µM.

With `Cn1c(-c2ccc(-c3cn[nH]c3CCCCO)c(F)c2F)cnc1C(=O)Nc1ccc(C(=O)N2CCN(C(=O)C3CC[N+](C)(C)CC3)CC2)c(Cl)c1` [Example F21, N-[3-chloro-4-[4-(1,1-dimethylpiperidin-1-ium-4-carbonyl)piperazine-1-carbonyl]phenyl]-5-[2,3-difluoro-4-[5-(4-hydroxybutyl)-1H-pyrazol-4-yl]phenyl]-1-methyl-imidazole-2-carboxamide; formate], the MIC in test [2] (setting [4]) is 2.31 µM.

As to `COCCn1cc(-c2ccc(-c3cnc(C(=O)Nc4ccc(C(=O)N5CCN(C(=O)C6CC[N+](C)(C)CC6)CC5)c(Cl)c4)n3C)c(F)c2F)c(CF)n1` [Example F29, N-[3-chloro-4-[4-(1,1-dimethylpiperidin-1-ium-4-carbonyl)piperazine-1-carbonyl]phenyl]-5-[2,3-difluoro-4-[3-(fluoromethyl)-1-(2-methoxyethyl)pyrazol-4-yl]phenyl]-1-methyl-imidazole-2-carboxamide; chloride], in test [1] (setting [3]), the IC90 turned out to be 280 nM. In test [2] (setting [4]), the minimal inhibitory concentration (MIC) was found to be 4.73 µM.

`Cn1c(-c2ccc(-c3cn(CC(N)=O)nc3C(F)(F)F)c(F)c2F)cnc1C(=O)Nc1ccc(C(=O)N2CCN(C(=O)C3CC[N+](C)(C)CC3)CC2)c(Cl)c1` [Example F35, 5-[4-[1-(2-amino-2-oxo-ethyl)-3-(trifluoromethyl)pyrazol-4-yl]-2,3-difluoro-phenyl]-N-[3-chloro-4-[4-(1,1-dimethylpiperidin-1-ium-4-carbonyl)piperazine-1-carbonyl]phenyl]-1-methyl-imidazole-2-carboxamide; formate]: in test [2] (setting [4]), the MIC was found to be 1.24 µM.

For `Cc1nn(CC(=O)Nc2ccccc2)cc1-c1ccc(-c2cnc(C(=O)Nc3ccc(C(=O)N4CCN(C(=O)C5CC[N+](C)(C)CC5)CC4)c(Cl)c3)n2C)c(F)c1F` [Example G5, 5-[4-[1-(2-anilino-2-oxo-ethyl)-3-methyl-pyrazol-4-yl]-2,3-difluoro-phenyl]-N-[3-chloro-4-[4-(1,1-dimethylpiperidin-1-ium-4-carbonyl)piperazine-1-carbonyl]phenyl]-1-methyl-imidazole-2-carboxamide; formate], in test [2] (setting [4]), the minimum inhibitory concentration (MIC) turned out to be 0.32 µM.

Take `Cc1c(-c2ccc(-c3cnc(C(=O)Nc4ccc(C(=O)N5CCN(C(=O)C6CC[N+](C)(C)CC6)CC5)c(Cl)c4)n3C)c(F)c2F)cnn1CC(=O)Nc1ccccn1` [Example G19, N-[3-chloro-4-[4-(1,1-dimethylpiperidin-1-ium-4-carbonyl)piperazine-1-carbonyl]phenyl]-5-[2,3-difluoro-4-[5-methyl-1-[2-oxo-2-(2-pyridylamino)ethyl]pyrazol-4-yl]phenyl]-1-methyl-imidazole-2-carboxamide; formate]: the minimum inhibitory concentration (MIC) in test [2] (setting [4]) worked out at 0.32 µM.

With `Cc1nn(CC(=O)NC2CCOC2)cc1-c1ccc(-c2cnc(C(=O)Nc3ccc(C(=O)N4CCN(C(=O)C5CC[N+](C)(C)CC5)CC4)c(Cl)c3)n2C)c(F)c1F` (stereo not shown) [Example G20, N-[3-chloro-4-[4-(1,1-dimethylpiperidin-1-ium-4-carbonyl)piperazine-1-carbonyl]phenyl]-5-[2,3-difluoro-4-[3-methyl-1-[2-oxo-2-(tetrahydrofuran-3-ylamino)ethyl]pyrazol-4-yl]phenyl]-1-methyl-imidazole-2-carboxamide; formate], the minimum inhibitory concentration (MIC) in test [2] (setting [4]) turned out to be 2.52 µM.

As to `Cc1nn(CC(=O)NC2CCCCO2)cc1-c1ccc(-c2cnc(C(=O)Nc3ccc(C(=O)N4CCN(C(=O)C5CC[N+](C)(C)CC5)CC4)c(Cl)c3)n2C)c(F)c1F` (stereo not shown) [Example G21, N-[3-chloro-4-[4-(1,1-dimethylpiperidin-1-ium-4-carbonyl)piperazine-1-carbonyl]phenyl]-5-[2,3-difluoro-4-[3-methyl-1-[2-oxo-2-(tetrahydropyran-2-ylamino)ethyl]pyrazol-4-yl]phenyl]-1-methyl-imidazole-2-carboxamide; formate], in test [2] (setting [4]), the MIC was found to be 2.57 µM.

As for `Cn1c(-c2ccc(-c3cn[nH]c3-c3cscn3)c(F)c2F)cnc1C(=O)Nc1ccc(C(=O)N2CCN(C(=O)C3CC[N+](C)(C)CC3)CC2)c(Cl)c1` [Example I5, N-[3-chloro-4-[4-(1,1-dimethylpiperidin-1-ium-4-carbonyl)piperazine-1-carbonyl]phenyl]-5-[2,3-difluoro-4-(5-thiazol-4-yl-1H-pyrazol-4-yl)phenyl]-1-methyl-imidazole-2-carboxamide; formate], the MIC in test [2] (setting [4]) worked out at 0.58 µM.
